Experimental data reported in US9770349B2, “Nanoporous stents with enhanced cellular adhesion and reduced neointimal formation” (University of Virginia Patent Foundation, priority 2002, dated 2017).
≈ marks a conversion by molar mass, not a printed value.

Assay: Rapamycin solubility in solvent
Assay type: physicochemical
Conditions: 100% ethanol, organic solvent or mixture, in ethanol (100% ethanol)

Work on CO[C@H]1C[C@@H]2CC[C@@H](C)[C@@](O)(O2)C(=O)C(=O)N2CCCC[C@H]2C(=O)O[C@H]([C@H](C)C[C@@H]2CC[C@@H](O)[C@H](OC)C2)CC(=O)[C@H](C)/C=C(\C)[C@@H](O)[C@@H](OC)C(=O)[C@H](C)C[C@H](C)/C=C/C=C/C=C/1C [rapamycin] yielded a solubility of about 90 mg/mL (≈ 98.4 mM).
